One experiment concerns RAR receptors. Description: Co-transfection assay, RAR subfamily (summary in words). The experiment is classed as cell-based. Conditions: CV-1 cells. On the procedure: Utilizing the "cis-trans" or "co-transfection" assay described by Evans et al., Science, 240:889-95 (May 13, 1988), the disclosure of which is herein incorporated by reference, the retinoid compounds of the present invention were tested and found to have strong, specific activity as either selective RXR agonists, or as pan-agonist activators of both RAR and RXR receptors. This assay is described in further detail in U.S. Pat. Nos. 4,981,784 and 5,071,773, the disclosures of which are incorporated herein by reference.
In the co-transfection assay, a cloned cDNA for an IR (e.g., human RARα, RARβ, RXRγ) under the control of a constitutive promoter (e.g., the SV 40 promoter) is introduced by transfection (a procedure to induce cells to take up foreign genes) into a background cell substantially devoid of endogenous IRs. This introduced gene directs the recipient cells to make the IR protein of interest. A second gene is also introduced (co-transfected) into the same cells in conjunction with the IR gene. […]
The co-transfection assay can detect small molecule agonists or antagonists of target IRs. […] This activity can be conveniently measured, e.g., by increasing luciferase production, which reflects compound-dependent, IR-mediated increases in reporter transcription. […]

Another experiment deals with RPMI 8226. Description: Incorporation of 3H-thymidine, RPMI 8226. It is filed as cell-based. Conditions: Homo sapiens, 96 hours incubation, then 6 hours 3H-thymidine, read-out: TdR IC50 RPMI 8226.
A further experiment addresses T1, RXRβ (Mus musculus, UniProt P28704).
T1 sequence (P28704 1-520): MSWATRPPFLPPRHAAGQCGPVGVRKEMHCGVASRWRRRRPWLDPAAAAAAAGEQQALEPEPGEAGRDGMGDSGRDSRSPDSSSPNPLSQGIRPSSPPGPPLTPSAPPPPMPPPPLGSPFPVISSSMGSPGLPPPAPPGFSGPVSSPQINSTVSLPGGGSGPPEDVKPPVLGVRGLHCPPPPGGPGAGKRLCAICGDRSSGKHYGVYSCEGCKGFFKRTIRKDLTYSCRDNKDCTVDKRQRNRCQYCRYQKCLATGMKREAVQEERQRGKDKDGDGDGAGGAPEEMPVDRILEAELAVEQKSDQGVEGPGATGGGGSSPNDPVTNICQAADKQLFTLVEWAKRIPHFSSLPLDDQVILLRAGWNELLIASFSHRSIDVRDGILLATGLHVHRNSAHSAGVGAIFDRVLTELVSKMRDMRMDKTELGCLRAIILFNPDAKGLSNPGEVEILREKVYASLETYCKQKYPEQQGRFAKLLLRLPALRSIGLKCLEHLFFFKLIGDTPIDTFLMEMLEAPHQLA
Description: Co-transfection assay, RXRβ agonist activity. The experiment is classed as cell-based. Conditions: CV-1 cells, luciferase reporter, read-out: RXRβ Pot. (A reporter such as luciferase makes a cellular process visible.)

A further experiment concerns AML-193. Put plainly: Incorporation of 3H-thymidine, AML-193. Conditions: Homo sapiens, read-out: TdR IC50 AML-193 (nM).
In another experiment the test system is ME 180. Put plainly: Incorporation of 3H-thymidine, ME 180. Conditions: Homo sapiens, ME-180; 96 hours incubation, then 6 hours 3H-thymidine; read-out: TdR IC50 ME 180. It is filed as cell-based.

Molecules are shown by their SMILES. Some results are limits rather than exact numbers.

As to `CC(/C=C/CC1(c2ccc3c(c2)C(C)(C)CCC3(C)C)CCCC1)=C\C(=O)O` [Compound 108, (2E, 4E)-6-[(5,5,8,8-Tetramethyl-5,6,7,8-tetrahydronaphtha-len-2-yl)cyclopentane-1-yl]-3-methyl hexadienoic acid], the “activity for the RAR receptors” value with RAR receptors is “no activity at all”.
The term IC50 denotes the concentration that gives 50% inhibition. On to `CC(/C=C/CC1(c2ccc3c(c2)C(C)(C)CCC3(C)C)CC1)=C\C(=O)O` [Compound 101, (2E, 4E)-6-[1-(5,5,8,8-Tetramethyl-5,6,7,8-tetrahydronaphtha-len-2-yl)cyclopropanyl]-3-methyl hexadienoic acid], for which the results for the IC50 in the experiment on RPMI 8226, with AML-193 and in the experiment on ME 180 were below 0.1 nM, below 0.1 nM and 0.9 nM, respectively. At RXRβ, the EC50 came to 6 nM.
For `CC(/C=C/CC1(c2cc(C(C)(C)C)cc3c2CCC3(C)C)CC1)=C\C(=O)O` [Compound 107, (2E, 4E)-6-[1-(6-t-butyl-1,1-dimethyl-indan-4-yl)-cyclopropyl]-3-methyl hexadienoic acid], the EC50 on RXRβ turned out to be 22 nM. Moreover, the “activity for the RAR receptors” value in the experiment with RAR receptors is “no activity at all”.

For the origin of these results see patent US6005007A, “Retinoids, methods for their production and use” (priority 1997, dated 1999).
